Experimental findings from US9127001B2, “Substituted 4,5,6,7-tetrahydro-1H-pyrazolo[4,3-c]pyridines, their use as medicament, and pharmaceutical preparations comprising them” (Sanofi, priority 2011, dated 2015) are described below.

Assay [1] concerns the target Human TASK-1 channels (Homo sapiens (Human), UniProt O14649). Description: Activity on the TASK-1 channel in Xenopus oocytes (two-microelectrode voltage clamp). As to conditions: for IC50: human TASK-1 expressed in Xenopus oocytes, currents during pulses to 40 mV, room temperature. It is filed as cell-based. The method, boiled down:
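Human TASK-1 was expressed in defolliculated Xenopus laevis oocytes by in vitro-synthesised RNA injection and recorded by two-microelectrode voltage clamp. Oocytes were superfused with ND96 (pH 7.4) at room temperature, with compound added at rising concentrations. IC50 came from a general dose-response fit.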

Assay [2] relates to left atrium of the anesthetized pig. The assay can be described thus: Refractory period and left-atrial vulnerability in the anesthetized pig. The class given is in vivo. As to conditions: bolus 1 mg/kg, mean value n = 3. As to the method: Investigation of the Refractory Period and the Left-Atrial Vulnerability in the Pig
The compounds were tested for prolongation of the refractory period and antiarrhythmic activity on the atrium of the anesthetized pig as described in the literature (Knobloch et al. 2002. Naunyn-Schmiedberg's Arch. Pharmacol. 366; 482-487). Here the anti-arrhythmic action relates to the inhibition of the occurrence of episodes of arrhythmias which are induced by a prematurely placed extra-stimulus (S2) in the left atrium (=left-atrial vulnerability). The refractory period values are stated in percent of the basal values 15 minutes after injection. Mean values for the refractory periods are shown from three rates (150, 200 and 250/min).
The action of 3-[5-Acetyl-1-(2,4-difluoro-benzyl)-4,5,6,7-tetrahydro-1H-pyrazolo[4,3-c]pyridin-3-yl]-benzonitrile (6a) on the refractory period of the left atrium and antiarrhythmic activity in the anesthetized pig after a bolus administration of 1 mg/kg is shown in table 1. From the results shown in table 1, it is seen that it was possible to prevent 61% of the induced arrhythmias.

Molecules are shown by their SMILES.

By IC50 is commonly meant the concentration at which inhibition is half-maximal. The term inhibition denotes the drop in the measured response relative to a control, in per cent.

Human TASK-1 channels, sequence (O14649 whole entry, the tested form may be a part): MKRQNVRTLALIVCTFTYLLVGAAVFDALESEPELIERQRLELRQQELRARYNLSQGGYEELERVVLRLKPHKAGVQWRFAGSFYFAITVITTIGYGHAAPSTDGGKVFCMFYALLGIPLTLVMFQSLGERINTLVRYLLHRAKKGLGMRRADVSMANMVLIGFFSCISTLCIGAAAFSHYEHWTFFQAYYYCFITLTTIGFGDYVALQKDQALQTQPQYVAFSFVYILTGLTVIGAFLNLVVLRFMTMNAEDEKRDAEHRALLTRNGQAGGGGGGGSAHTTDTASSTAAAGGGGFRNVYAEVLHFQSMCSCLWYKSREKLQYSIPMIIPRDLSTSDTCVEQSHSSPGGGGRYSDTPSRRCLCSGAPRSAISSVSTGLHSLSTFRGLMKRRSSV

For `CC(=O)N1CCc2c(c(-c3cccc(C#N)c3)nn2Cc2ccc(F)cc2F)C1` [Example 6a, 3-[5-Acetyl-1-(2,4-difluoro-benzyl)-4,5,6,7-tetrahydro-1H-pyrazolo[4,3-c]pyridin-3-yl]-benzonitrile], in assay [1], the IC50 amounted to 95 nM. For the same compound, the “% inhibition of the arrhythmias” value in assay [2] (S2-induced arrhythmias, 3 measurements before vs. 3 during first hour after administration) came out at 61%. Moreover, in assay [2] (left atrium, 15 minutes after injection, mean of three rates (150, 200 and 250/min)), the “% increase in the refractory period” value is 14%. With `Cn1cncc1C(=O)N1CCc2c(c(-c3cccc(C#N)c3)nn2Cc2ccc(F)cc2F)C1` [Example 8w, 3-[1-(2,4-Difluoro-benzyl)-5-(3-methyl-3H-imidazole-4-carbonyl)-4,5,6,7-tetrahydro-1H-pyrazolo[4,3-c]pyridin-3-yl]-benzonitrile], half-maximal inhibition in assay [1] (IC50) was put at 1150 nM. Same read-out and setting: for `Cn1ccc(C(=O)N2CCc3c(c(-c4cccc(C#N)c4)nn3Cc3ccc(F)cc3F)C2)n1` [Example 8x, 3-[1-(2,4-Difluoro-benzyl)-5-(1-methyl-1H-pyrazole-3-carbonyl)-4,5,6,7-tetrahydro-1H-pyrazolo[4,3-c]pyridin-3-yl]-benzonitrile] the value was 1880 nM. The compound `CCOC(=O)N1CCc2c(c(-c3cccc(C#N)c3)nn2Cc2ccc(F)cc2F)C1` [Example 8y, 3-(3-Cyano-phenyl)-1-(2,4-difluoro-benzyl)-1,4,6,7-tetrahydro-pyrazolo[4,3-c]pyridine-5-carboxylic acid ethyl ester] gave an inhibition at 5 µM in assay [1] of 77%. With `CC(=O)N1Cc2c(-c3ccc(F)cc3)nn(Cc3ccc(F)cc3F)c2CC1C` (stereo not drawn) [Example 8z, 1-[1-(2,4-Difluoro-benzyl)-3-(4-fluoro-phenyl)-6-methyl-1,4,6,7-tetrahydro-pyrazolo[4,3-c]pyridin-5-yl]-ethanone], in assay [1], the IC50 is 511 nM. With `CC(C)NC(=O)N1CCc2c(c(-c3cccc(C#N)c3)nn2Cc2ccc(F)cc2F)C1` [Example 11a, 3-(3-Cyano-phenyl)-1-(2,4-difluoro-benzyl)-1,4,6,7-tetrahydro-pyrazolo[4,3-c]pyridine-5-carboxylic acid isopropylamide], at 5 µM the inhibition in assay [1] was 76%.

In assay [1], `CCNC(=O)N1CCc2c(c(-c3cccc(C#N)c3)nn2Cc2ccc(F)cc2F)C1` [Example 11h, 3-(3-Cyano-phenyl)-1-(2,4-difluoro-benzyl)-1,4,6,7-tetrahydro-pyrazolo[4,3-c]pyridine-5-carboxylic acid ethylamide] registered an inhibition at 5 µM of 91%.

`CNC(=O)N1CCc2c(c(-c3cccc(C#N)c3)nn2Cc2ccc(F)cc2F)C1` [Example 12a, 3-(3-Cyano-phenyl)-1-(2,4-difluoro-benzyl)-1,4,6,7-tetrahydro-pyrazolo[4,3-c]pyridine-5-carboxylic acid methylamide] came in with an IC50 in assay [1] of 380 nM.

Take `CN(C)C(=O)N1CCc2c(c(-c3cccc(C#N)c3)nn2Cc2ccc(F)cc2F)C1` [Example 12d, 3-(3-Cyano-phenyl)-1-(2,4-difluoro-benzyl)-1,4,6,7-tetrahydro-pyrazolo[4,3-c]pyridine-5-carboxylic acid dimethylamide]: at 5 µM the inhibition in assay [1] was 74%. On the same count and under the same terms, for `CN(CCO)C(=O)N1CCc2c(c(-c3cccc(C#N)c3)nn2Cc2ccc(F)cc2F)C1` [Example 12e, 3-(3-Cyano-phenyl)-1-(2,4-difluoro-benzyl)-1,4,6,7-tetrahydro-pyrazolo[4,3-c]pyridine-5-carboxylic acid (2-hydroxy-ethyl)-methyl-amide] the value was 65%. Turning to `CC(=O)N1CCc2c(c(-c3cc(C#N)ccn3)nn2Cc2ccc(F)cc2F)C1` [Example 13a, 2-[5-Acetyl-1-(2,4-difluoro-benzyl)-4,5,6,7-tetrahydro-1H-pyrazolo[4,3-c]pyridin-3-yl]-isonicotinonitrile], half-maximal inhibition in assay [1] (IC50) was put at 422 nM.

In assay [1], `CC(=O)N1CCc2c(c(-c3cccc(C#N)n3)nn2Cc2ccc(F)cc2F)C1` [Example 13b, 6-[5-Acetyl-1-(2,4-difluoro-benzyl)-4,5,6,7-tetrahydro-1H-pyrazolo[4,3-c]pyridin-3-yl]-pyridine-2-carbonitrile] returned an IC50 of 462 nM. Still for that read-out and setting: for `N#Cc1cccc(-c2nn(Cc3ccc(F)cc3F)c3c2CN(C(=O)CO)CC3)c1` [Example 14a, 3-[1-(2,4-Difluoro-benzyl)-5-(2-hydroxy-acetyl)-4,5,6,7-tetrahydro-1H-pyrazolo[4,3-c]pyridin-3-yl]-benzonitrile] the value was under 10000 nM.
